According to paper PMC12116762, “Topobexin targets the Topoisomerase II ATPase domain for beta isoform-selective inhibition and anthracycline cardioprotection” (Nature Communications, 2025):
Values joined by “and” are separate entries in the source; they are usually repeats but may differ in a detail not shown here. Equal values may be shown once.

Key:
Assay type in all cases: biochemical
[1] = biological target: T1, recombinant human TOP2B (Homo sapiens, UniProt Q02880); assay: DNA decatenation assay, recombinant TOP2B; conditions: for SRbeta (SRTOP2B), decatenation activity: TOP2A IC50 divided by TOP2B IC50; for IC50: enzyme expressed in HEK293F, n=3
T1 construct: Using recombinant full-length human TOP2A and TOP2B enzymes; YFP (N, cleaved yes); made in house; host or cells: HEK293F
T1 sequence (Q02880 1-1621 isoform Q02880-2): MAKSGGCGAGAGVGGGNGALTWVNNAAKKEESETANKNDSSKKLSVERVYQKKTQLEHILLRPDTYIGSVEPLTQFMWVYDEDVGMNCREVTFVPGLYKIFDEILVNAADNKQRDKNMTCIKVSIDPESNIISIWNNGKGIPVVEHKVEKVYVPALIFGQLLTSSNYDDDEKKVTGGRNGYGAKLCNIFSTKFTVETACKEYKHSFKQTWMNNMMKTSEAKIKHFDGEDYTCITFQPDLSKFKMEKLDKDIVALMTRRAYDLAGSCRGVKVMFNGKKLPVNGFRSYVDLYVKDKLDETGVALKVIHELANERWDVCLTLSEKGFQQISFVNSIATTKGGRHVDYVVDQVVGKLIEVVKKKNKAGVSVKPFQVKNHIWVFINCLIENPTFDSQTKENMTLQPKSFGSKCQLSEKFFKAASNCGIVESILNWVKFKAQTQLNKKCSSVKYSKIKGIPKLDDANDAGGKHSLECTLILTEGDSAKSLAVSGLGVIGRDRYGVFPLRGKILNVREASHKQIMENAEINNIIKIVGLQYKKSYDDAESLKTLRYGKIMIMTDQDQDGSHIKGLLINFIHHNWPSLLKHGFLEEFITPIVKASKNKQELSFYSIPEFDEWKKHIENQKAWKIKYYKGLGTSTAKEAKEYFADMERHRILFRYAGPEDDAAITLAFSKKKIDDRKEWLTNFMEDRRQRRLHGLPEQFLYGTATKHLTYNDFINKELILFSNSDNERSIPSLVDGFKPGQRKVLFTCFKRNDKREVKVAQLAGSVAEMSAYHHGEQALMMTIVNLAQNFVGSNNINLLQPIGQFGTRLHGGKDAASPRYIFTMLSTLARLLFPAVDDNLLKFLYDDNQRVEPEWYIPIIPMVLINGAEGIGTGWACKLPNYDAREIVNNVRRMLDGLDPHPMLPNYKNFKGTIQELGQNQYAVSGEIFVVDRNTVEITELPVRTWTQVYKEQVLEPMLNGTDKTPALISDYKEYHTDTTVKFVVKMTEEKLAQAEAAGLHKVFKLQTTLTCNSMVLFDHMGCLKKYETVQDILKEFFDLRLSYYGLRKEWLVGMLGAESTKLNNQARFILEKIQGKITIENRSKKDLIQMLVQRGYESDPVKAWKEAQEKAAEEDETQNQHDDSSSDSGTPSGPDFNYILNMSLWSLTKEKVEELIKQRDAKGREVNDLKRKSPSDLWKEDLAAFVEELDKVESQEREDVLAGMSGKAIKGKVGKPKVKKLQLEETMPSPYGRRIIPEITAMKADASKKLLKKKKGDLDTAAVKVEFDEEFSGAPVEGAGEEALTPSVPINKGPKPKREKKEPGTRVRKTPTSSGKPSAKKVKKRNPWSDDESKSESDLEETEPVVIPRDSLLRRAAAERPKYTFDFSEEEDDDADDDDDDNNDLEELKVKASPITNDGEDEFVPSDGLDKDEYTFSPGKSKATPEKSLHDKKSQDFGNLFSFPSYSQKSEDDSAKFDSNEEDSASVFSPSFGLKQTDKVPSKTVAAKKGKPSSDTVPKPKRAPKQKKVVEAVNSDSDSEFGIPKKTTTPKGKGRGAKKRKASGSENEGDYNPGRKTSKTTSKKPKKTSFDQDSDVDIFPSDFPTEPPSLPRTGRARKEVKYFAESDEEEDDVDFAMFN
Description: The human topoisomerase II decatenation assay was performed to determine the inhibitory effects of BNS-22 and new compounds as previously described with minor modifications[14],[36]. The assay was performed using recombinant human TOP2A or TOP2B generated using the HEK293F YFP-tag expression system as previously described[18],[19],[36]. Briefly, plasmids encoding YFP-TOP2A or YFP-TOP2B were transfected into HEK293F cells (Catalog number 11625019, Thermofisher Scientific), and TOP2 proteins were isolated from cell lysates by anti-YFP nanobody affinity chromatography. After elution by TEV protease cleavage, TOP2 proteins were FPLC purified by sequential cation exchange and size exclusion chromatography. Plasmid encoding TOP2B C88Y was generated by round-the-horn PCR mutagenesis and the sequence was verified by full-plasmid sequencing. Purified TOP2 proteins were stored in a storage buffer containing 20 mM HEPES pH 7.5, 500 mM NaCl, 0.5 mM TCEP, 25% (v/v) glycerol at -80 °C. For decatenation assays, purified TOP2 proteins were incubated with 200 ng kDNA (Topogen) in a reaction buffer containing 50 mM Tris−HCl (pH 8), 100 mM NaCl, 10 mM MgCl2, 0.5 mM DTT, 2 mM ATP, 0.1 mM tris(2-carboxyethyl)phosphine (TCEP), 5% (v/v) glycerol, 70 μg/mL bovine serum albumin, and 1/10 volume of each compound diluted in 10% DMSO (final DMSO concentration 1%) for 40 min at 37 °C. The reaction was then stopped by the addition of gel loading buffer (0.5 volumes of 60% (w/v) glycerol, 60 mM EDTA, 20 mM Tris−HCl (pH 7.5), 0.5 mg/mL bromophenol blue) and the samples were placed on ice. Reaction products were resolved by agarose gel electrophoresis in TBE buffer containing GelRed stain (Biotium). Gels were visualized using an iBright CL1000 (Thermofisher Scientific). Band intensities were quantified using FIJI, and the signal of the treated samples was normalized to the value of the control (untreated sample; 100%) present on the same gel. The normalized signal of three independent measurements was then expressed as mean ± SD. Each presented data point was obtained from distinct sample. Normalized values were plotted as a function of inhibitor concentration to determine IC50 values by nonlinear regression with variable slope using Prism 9 (GraphPad).

[2] = biological target: T1, recombinant human TOP2B; assay: In vitro ATPase activity of TOP2B (coupled assay); conditions: for SRbeta (SRTOP2B), TOP2 ATPase activity: TOP2A IC50 divided by TOP2B IC50; for IC50: n=3
Procedure, shortened: (§1)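 Recombinant human TOP2A or TOP2B, prediluted to 500 nM in HEPES pH 7.5/500 mM NaCl storage buffer, in an NADH-coupled ATP hydrolysis assay, ATP-initiated at 30 °C. NADH fluorescence decay (ex 340, em 480) read every 30 s for 120 cycles. Slopes background-corrected, normalized to untreated controls, and fitted for IC50.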

[3] = biological target: T2, recombinant human TOP2A (Homo sapiens, UniProt P11388); assay: In vitro ATPase activity of TOP2A (coupled assay); conditions: for IC50: n=3
T2 construct: Using recombinant full-length human TOP2A and TOP2B enzymes; YFP (N, cleaved yes); made in house; host or cells: HEK293F
T2 sequence (P11388 whole entry): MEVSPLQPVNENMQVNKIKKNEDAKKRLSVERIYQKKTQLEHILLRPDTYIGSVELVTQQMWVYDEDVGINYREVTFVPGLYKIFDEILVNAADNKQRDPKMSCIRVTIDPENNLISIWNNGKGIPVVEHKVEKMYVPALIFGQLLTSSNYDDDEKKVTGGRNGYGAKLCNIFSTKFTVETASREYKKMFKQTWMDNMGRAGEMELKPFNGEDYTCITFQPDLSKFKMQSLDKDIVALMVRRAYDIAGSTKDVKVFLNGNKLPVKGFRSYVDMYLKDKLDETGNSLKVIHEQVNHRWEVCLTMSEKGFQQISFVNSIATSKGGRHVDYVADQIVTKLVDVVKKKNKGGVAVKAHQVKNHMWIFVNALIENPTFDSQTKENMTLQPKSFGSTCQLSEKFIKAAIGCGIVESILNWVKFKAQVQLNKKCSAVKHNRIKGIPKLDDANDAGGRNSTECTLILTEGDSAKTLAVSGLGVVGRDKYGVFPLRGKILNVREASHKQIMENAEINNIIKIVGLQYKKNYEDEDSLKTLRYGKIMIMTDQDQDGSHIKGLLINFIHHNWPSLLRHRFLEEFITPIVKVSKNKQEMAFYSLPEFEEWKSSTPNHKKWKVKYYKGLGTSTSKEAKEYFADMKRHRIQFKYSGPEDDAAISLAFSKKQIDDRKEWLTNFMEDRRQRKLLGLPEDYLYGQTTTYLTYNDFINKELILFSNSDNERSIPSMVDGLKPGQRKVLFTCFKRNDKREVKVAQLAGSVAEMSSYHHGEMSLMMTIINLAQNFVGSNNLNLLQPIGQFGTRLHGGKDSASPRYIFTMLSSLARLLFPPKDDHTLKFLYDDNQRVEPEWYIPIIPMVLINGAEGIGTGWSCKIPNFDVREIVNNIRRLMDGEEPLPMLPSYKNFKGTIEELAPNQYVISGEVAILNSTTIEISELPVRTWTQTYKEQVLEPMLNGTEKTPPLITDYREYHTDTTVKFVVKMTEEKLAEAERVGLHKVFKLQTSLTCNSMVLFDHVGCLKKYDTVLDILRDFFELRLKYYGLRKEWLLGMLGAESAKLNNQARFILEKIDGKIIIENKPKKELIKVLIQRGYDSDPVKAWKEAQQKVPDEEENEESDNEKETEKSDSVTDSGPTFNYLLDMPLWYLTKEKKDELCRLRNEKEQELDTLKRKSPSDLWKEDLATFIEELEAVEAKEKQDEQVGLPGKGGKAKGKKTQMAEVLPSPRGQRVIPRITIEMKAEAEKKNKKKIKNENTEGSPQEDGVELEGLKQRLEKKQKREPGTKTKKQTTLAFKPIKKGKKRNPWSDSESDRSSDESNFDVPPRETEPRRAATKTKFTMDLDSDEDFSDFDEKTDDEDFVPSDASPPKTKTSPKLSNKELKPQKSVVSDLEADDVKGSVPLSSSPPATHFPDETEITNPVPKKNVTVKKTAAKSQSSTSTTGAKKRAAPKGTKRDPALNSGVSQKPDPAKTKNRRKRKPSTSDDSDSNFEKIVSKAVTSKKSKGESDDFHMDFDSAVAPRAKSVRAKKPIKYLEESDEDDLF
Procedure, shortened: as §1

[4] = 0.03125 μM, independent replicates
[5] = 0.0625 μM, independent replicates
[6] = 0.125 μM, independent replicates
[7] = 0.25 μM, independent replicates

Structure (SMILES): C[C@@H](CN1CC(=O)NC(=O)C1)N1CC(=O)NC(=O)C1 [dexrazoxane]
- remaining activity at 0.029 µM ([1]; 0.029 μM, independent replicates, read-out: Normalized % TOP2B activity, decatenation): 88.8%
- remaining activity at 0.469 µM ([1]; 0.469 μM, independent replicates, read-out: Normalized % TOP2B activity, decatenation): 75.2%
- remaining activity at 15 µM ([1]; 15.000 μM, independent replicates, read-out: Normalized % TOP2B activity, decatenation): 12.9%
- remaining activity at 30 µM ([1]; 30.000 μM, independent replicates, read-out: Normalized % TOP2B activity, decatenation): 5.87%
- SRbeta (SRTOP2B), decatenation activity [1]: 0.75
- IC50 [1]: 4.5 µM
- remaining activity at 0.03125 µM ([2]; 0.03125 μM, independent replicates, read-out: Normalized % TOP2B activity, ATPase): 97.9%
- remaining activity at 0.0625 µM ([2]; 0.0625 μM, independent replicates, read-out: Normalized % TOP2B activity, ATPase): 99.9%
- remaining activity at 0.125 µM ([2]; 0.125 μM, independent replicates, read-out: Normalized % TOP2B activity, ATPase): 96.3%
- remaining activity at 0.25 µM ([2]; 0.25 μM, independent replicates, read-out: Normalized % TOP2B activity, ATPase): 88.7%
- remaining activity at 0.5 µM ([2]; 0.5 μM, independent replicates, read-out: Normalized % TOP2B activity, ATPase): 80.9%
- remaining activity at 1 µM ([2]; 1 μM, independent replicates, read-out: Normalized % TOP2B activity, ATPase): 74.8%
- remaining activity at 2 µM ([2]; 2 μM, independent replicates, read-out: Normalized % TOP2B activity, ATPase): 68.4%
- remaining activity at 4 µM ([2]; 4 μM, independent replicates, read-out: Normalized % TOP2B activity, ATPase): 45%
- remaining activity at 8 µM ([2]; 8 μM, independent replicates, read-out: Normalized % TOP2B activity, ATPase): 24.3%
- remaining activity at 16 µM ([2]; 16 μM, independent replicates, read-out: Normalized % TOP2B activity, ATPase): 14.6%
- remaining activity at 32 µM ([2]; 32 μM, independent replicates, read-out: Normalized % TOP2B activity, ATPase): 13.2%
- relative inhibition of TOP2A vs TOP2B ([2]; ATPase): inhibits ATP hydrolysis for both isoforms with equal potency
- SRbeta (SRTOP2B), TOP2 ATPase activity [2]: 0.89
- IC50 [2]: 2550 nM
- remaining activity at 0.125 µM ([3]; 0.125 μM, independent replicates, read-out: Normalized % TOP2A activity, ATPase): 90.6%
- remaining activity at 0.25 µM ([3]; 0.25 μM, independent replicates, read-out: Normalized % TOP2A activity, ATPase): 86.6%
- remaining activity at 1 µM ([3]; 1 μM, independent replicates, read-out: Normalized % TOP2A activity, ATPase): 62.9%
- remaining activity at 4 µM ([3]; 4 μM, independent replicates, read-out: Normalized % TOP2A activity, ATPase): 29.5%
- remaining activity at 8 µM ([3]; 8 μM, independent replicates, read-out: Normalized % TOP2A activity, ATPase): 19%
- remaining activity at 16 µM ([3]; 16 μM, independent replicates, read-out: Normalized % TOP2A activity, ATPase): 14.4%
- IC50 [3]: 2270 nM

Structure (SMILES): CCCc1cc(=O)oc2c(C(=O)N3CCCc4ccccc43)c(OC)cc(OC)c12 [BNS-22]
- Normalized % TOP2B activity, decatenation ([1]; 0.029 μM, independent replicates): 110.4% and 102.5% and 86.14%
- Normalized % TOP2B activity, decatenation ([1]; 0.059 μM, independent replicates): 117.4% and 95.62% and 85.84%
- Normalized % TOP2B activity, decatenation ([1]; 0.117 μM, independent replicates): 120.4% and 94.08% and 92.01%
- Normalized % TOP2B activity, decatenation ([1]; 0.234 μM, independent replicates): 93.24% and 96.15% and 88.28%
- Normalized % TOP2B activity, decatenation ([1]; 0.469 μM, independent replicates): 119.4% and 102% and 86.29%
- Normalized % TOP2B activity, decatenation ([1]; 0.938 μM, independent replicates): 128.5% and 90.51% and 82.07%
- Normalized % TOP2B activity, decatenation ([1]; 1.875 μM, independent replicates): 113% and 60.36% and 75.6%
- Normalized % TOP2B activity, decatenation ([1]; 3.750 μM, independent replicates): 78.05% and 36.23% and 45.78%
- Normalized % TOP2B activity, decatenation ([1]; 7.500 μM, independent replicates): 36.99% and 17.69% and 24.26%
- Normalized % TOP2B activity, decatenation ([1]; 15.000 μM, independent replicates): 19.21% and 12.13% and 18.98%
- Normalized % TOP2B activity, decatenation ([1]; 30.000 μM, independent replicates): 18.37% and 9.163% and 14.61%
- SRbeta (SRTOP2B), decatenation activity [1]: 1.6
- IC50 [1]: 4 µM
- Normalized % TOP2B activity, ATPase [2, 4]: 92.74% and 92.18% and 98.3%
- Normalized % TOP2B activity, ATPase [2, 5]: 92.24% and 94.66% and 102.1588%
- Normalized % TOP2B activity, ATPase [2, 6]: 100.3668% and 84.21% and 108.4459%
- Normalized % TOP2B activity, ATPase [2, 7]: 91.2179% and 87.24% and 97.62%
- Normalized % TOP2B activity, ATPase ([2]; 0.5 μM, independent replicates): 80.5% and 76.19% and 88.45%
- Normalized % TOP2B activity, ATPase ([2]; 1 μM, independent replicates): 58.26% and 48.84% and 67.64%
- Normalized % TOP2B activity, ATPase ([2]; 2 μM, independent replicates): 31.308% and 30.02% and 38.85%
- Normalized % TOP2B activity, ATPase ([2]; 4 μM, independent replicates): 10.88% and 8.636% and 13.51%
- Normalized % TOP2B activity, ATPase ([2]; 8 μM, independent replicates): 2.82% and 1.793% and 10.43%
- Normalized % TOP2B activity, ATPase ([2]; 16 μM, independent replicates): 1.695% and 1.187% and 0.8652%
- Normalized % TOP2B activity, ATPase ([2]; 32 μM, independent replicates): 0.8806% and 0.9028% and 0.7954%
- selectivity ratio in favour of TOP2B (SRTOP2B) ([2]; ATP hydrolysis and DNA decatenation): 1.5–1.6
- SRbeta (SRTOP2B), TOP2 ATPase activity [2]: 1.5
- IC50 [2]: 870 nM
- Normalized % TOP2A activity, ATPase [3, 4]: 106.5339% and 96.82% and 104.97%
- Normalized % TOP2A activity, ATPase [3, 5]: 99.93% and 96.81% and 104.654%
- Normalized % TOP2A activity, ATPase [3, 6]: 97.92% and 87.09% and 103.8686%
- Normalized % TOP2A activity, ATPase [3, 7]: 84.39% and 86.41% and 95.01%
- Normalized % TOP2A activity, ATPase ([3]; 0.5 μM, independent replicates): 68.7163% and 74.39% and 48.12%
- Normalized % TOP2A activity, ATPase ([3]; 1 μM, independent replicates): 44.71% and 47.48% and 56.42%
- Normalized % TOP2A activity, ATPase ([3]; 2 μM, independent replicates): 21.32% and 23.49% and 28.53%
- Normalized % TOP2A activity, ATPase ([3]; 4 μM, independent replicates): 7.817% and 9.176% and 12.94%
- Normalized % TOP2A activity, ATPase ([3]; 8 μM, independent replicates): 4.538% and 5.681% and 5.457%
- Normalized % TOP2A activity, ATPase ([3]; 16 μM, independent replicates): 3.325% and 1.312% and 2.254%
- Normalized % TOP2A activity, ATPase ([3]; 32 μM, independent replicates): 1.897% and 0.9839% and 2.191%
- IC50 [3]: 1270 nM
